In US20210318306A1, “Compositions for and Methods of Neutralizing Lipopolysaccharide Toxicity and Methods of Identifying the Same” (priority 2020, published 2021):
“And” between values parts separate entries of the source, which are not always exact repeats. Equal entries are not always repeated. “Also recorded” adds a separate entry of the source.

Key:
Assay type in all cases: cell-based, human
[1] = test system: HEK-Blue hTLR4 cells; assay: IL-8 dose response in HEK-Blue hTLR4 cells with P.g. LPS 1 μg/ml and 3X-24X dilutions of simple solutions (Example 4)
Procedure: (§1) HEK-Blue hTLR4 cells (Invivogen, cat #hkb-htlr4) were cultured in a DMEM culture medium supplemented with 10% FBS and 1% penstrep at 37° C. with 5% CO2. LPS from Porphyromonas gingivalis (P.g. LPS; Invivogen, cat #tlrl-pglps and cat #tlrl-ppglps) activates TLR4 receptor and downstream inflammation in HEK-Blue hTLR4 cells. P.g. LPS is co-incubated with HEK-Blue hTLR4 cells in the absence or presence of the simple solutions. Standard and ultrapure P.g. LPS were both used due to ultrapure being a specific ligand for the TLR4 receptor while standard LPS is a ligand for both TLR2 and TLR4.
(§2) The simple solutions a) Zinc Oxide (ZnO), b) Zinc Citrate (ZnCitrate), c) Zinc Oxide+Zinc Citrate (Dual Zinc; DZ), d) Dual Zinc+Arginine (DZA, zinc oxide, zinc citrate and arginine), and e) L-Arginine (Arg) were diluted at different concentrations with culture medium.
2) experiments using 3×, 6×, 12×, and 24× dilution fold of the simple solutions (see Table 6 below).
(§3) HEK-Blue hTLR4 cells were plated in 96-well plates and grown until confluent at 37° C. and 5% CO2 in HEK-blue selection media (DMEM with 10% FBS, 1% penicillin-streptomycin, and antibiotics for HEK-blue selection (Invivogen, cat #hb-sel)). Cells were co-incubated overnight with varying concentrations of different zinc actives as well as arginine and stimulated with either 0.1 μg/mL standard P. gingivalis LPS or 1 μg/mL ultrapure P. gingivalis LPS. Cell supernatants were collected for human inflammation cytokine panels using Multiplex and ELISA analysis.
(§4) Multiplex analysis was performed using the MILLIPLEX MAP Human Cytokine/Chemokine Magnetic Bead Panel—Immunology Multiplex Assay for IL-1, IL-6, IL-8, TNFα, and GM-CSF (Millipore Sigma, cat #HCYTOMAG-60K).
In order to understand the role of Arginine in the inhibition of LPS induced inflammation, a dose response experiment was performed using ultrapure P.g. LPS, which only specifically targets TLR4 receptor, in order to maximize the activation of NF-kB and expression of IL-8.
The testing samples were prepared as the stock simple solutions. […] The first serial dilution was made 3 times with water, a dilution factor simulating dilution of toothpastes while brushing. Additional serial dilutions were made by 2-fold of the first dilution to study dose response effect.

[2] = test system: HEK-Blue hTLR4 cells; assay: IL-8 in HEK-Blue hTLR4 cell supernatants with standard P.g. LPS and simple solutions at 1 mM vs 10 mM total zinc (Example 4); settings: for IL-8 Concentration, replicate: listed as ZnCitrate
Procedure: as §1, §2
1) experiments using 1 mM vs 10 mM total zinc; and
as §3, §4
Testing was performed using total zinc concentrations to normalize the amount the zinc applied in the cell culture medium during co-incubation. Two concentrations of total zinc ion are based on the potential amount of zinc retained on the mouth soft tissue surface.

[3] = test system: HEK-TLR4 cells; assay: P. gingivalis LPS-induced cytokine secretion by HEK-TLR4 cells, Luminex 5-plex magnetic bead panel (Example 2)
Procedure: Commercially available HEK-Blue TLR4 cells (Invitrogen) are recombinant HEK 293 cells that have been transformed with DNA that encodes TLR4 that is expressed and present on the cell surface. HEK-Blue TLR4 cells are grown ion culture and used can be used in experimental assays to identify test compositions that modulate inflammation pathways stimulated by TLR4-LPS interaction.
Initial for LPS and zinc-containing starting solutions were made as follows. An LPS starting solution was prepared as follows: a […] solution of LPS was prepared using 2 μl of 1 mg/ml LPS and 10 ml media. Multiple zinc starting solutions were each prepared using media as diluent: a) 20 mM zinc oxide, b) 2 mM zinc oxide, c) 20 mM zinc citrate, d) 2 mM zinc citrate, e) 20 mM of a composition containing a 2:1 mixture of zinc oxide and zinc citrate and f) 2 mM of a composition containing a 2:1 mixture of zinc oxide and zinc citrate. The starting solutions were used to prepare various test samples.
In some embodiments, control assays include “Untreated”, in which eight Zinc test samples without LPS were made: […], 10 mM zinc oxide+zinc citrate, 1 mM zinc oxide+zinc citrate, 10 mM zinc oxide+zinc citrate+arginine and 1 mM zinc oxide+zinc citrate+arginine, The test samples without LPS were prepared by diluting the zinc starting solutions with equal parts media. Eight test samples with LPS were made: […], […], […], […], 10 mM zinc oxide+zinc citrate LPS, 1 mM zinc oxide+zinc citrate LPS, 10 mM zinc oxide+zinc citrate+arginine LPS and 1 mM zinc oxide+zinc citrate+arginine LPS. The test samples with LPS were prepared by diluting the zinc starting solutions with equal parts LPS starting solution.
Cells were grown to 70-80% confluent in a 96 well plate. 100 uL of a test sample was added to a well. Cells with test sample were incubated overnight. Media was collected from each well and transferred to a corresponding well in a 96-well plate. Assays to measure proinflammatory cytokines including IL-8 secretion were performed for each well.
Inflammation markers in supernatants collected from HEK-Blue cells co-incubated with Zinc and Zinc+LPS were quantified using Luminex Magpix instrument (MAGPIX-XPON42) and human 5-plex cytokine/chemokine Magnetic bead panel (Millipore HCYTOMAG-60K). The human 5-plex cytokine/chemokine Magnetic bead panel quantifies TNF-α, IL-6, IL-8, IL-1β and GM-CSF.
The Luminex Kit Procedure outlined in the instruction manual for each separate Luminex kit was performed on the supernatants collected from the HEK-Blue cells co-incubated with Zinc test solutions without LPS and Zinc test solutions plus LPS. Quality controls in range for the specified analytes were performed to ensure levels were within the acceptable range.
To run the Luminex Test, all necessary calibration and verification procedures as outlined by the MagPix and xPonent softwares were completed and the appropriate protocol for the assay was selected. The standards were verified to be correct and complete the plate layout of samples was verified. […] The “Avg. Result” was identified in the results generated.
Experiments were conducted to identify compositions that inhibit P. gingivalis LPS-induced IL-8, TNFα, GM-CSF, IL-1β and IL-6 by HEK-TLR4 cells. HEK-TLR4 cells in 96 well plates were contacted with 100 μl samples. IL-8, TNFα, GM-CSF, IL-1β and IL-6 were detected as described above.

[4] = 3X dilution of stock simple solution (Table 6) with P.g. LPS (1 μg/ml)
[5] = 6X dilution of stock simple solution (Table 6) with P.g. LPS (1 μg/ml)
[6] = 12X dilution of stock simple solution (Table 6) with P.g. LPS (1 μg/ml)
[7] = 24X dilution of stock simple solution (Table 6) with P.g. LPS (1 μg/ml)
[8] = 1 mM total zinc with standard P.g. LPS (0.1 μg/ml)
[9] = 10 mM total zinc with standard P.g. LPS (0.1 μg/ml)
[10] = 300 ppm with 0.1μ/ml P. gingivalis LPS
[11] = 600 ppm with 0.1μ/ml P. gingivalis LPS
[12] = P. gingivalis LPS, 300 and 600 ppm, listed as zinc citrate

N=C(N)NCCC[C@H](N)C(=O)O [Arg, L-Arginine]
IL-8 Concentration, Average [1, 4]: 236.6 pg/mL
IL-8 Concentration, replicate [1, 4]: 248.5 pg/mL and 224.7 pg/mL
IL-8 Concentration, Average [1, 5]: 1480.7 pg/mL
IL-8 Concentration, replicate [1, 5]: 1649.9 pg/mL and 1311.5 pg/mL
IL-8 Concentration, Average [1, 6]: 2903.3 pg/mL
IL-8 Concentration, replicate [1, 6]: 2891.2 pg/mL and 2915.5 pg/mL
IL-8 Concentration, Average [1, 7]: 3020.6 pg/mL
IL-8 Concentration, replicate [1, 7]: 3003.8 pg/mL and 3037.4 pg/mL
inhibition of IL-8 (in words) ([1]; at 3 times dilution of the stock simple solution): strong inhibition
inhibition of IL-8 (in words) ([1]; when dilution folds increase): lose the inhibition of IL-8 gradually

O=C([O-])CC(O)(CC(=O)[O-])C(=O)[O-].O=C([O-])CC(O)(CC(=O)[O-])C(=O)[O-].[Zn+2].[Zn+2].[Zn+2] [ZnC, zinc citrate]
IL-8 Concentration, Average [2, 8]: 34.9 pg/mL
IL-8 Concentration, replicate [2, 8]: 55.35 pg/mL and 27.95 pg/mL and 26.65 pg/mL and 29.55 pg/mL
IL-8 Concentration, Average [2, 9]: 10.6 pg/mL
IL-8 Concentration, replicate [2, 9]: 11.85 pg/ml (2×) and 3.15 pg/ml
IL-8 induced by co-incubation with P.g. LPS (in words) ([2]; at both 1 mM and 10 mM): reduced
IL-8 Concentration, Average [1, 4]: 32.1 pg/mL
IL-8 Concentration, replicate ([1]; 3X dilution of stock simple solution (Table 6) with P.g. LPS (1 μg/ml), listed as ZnCitrate): 35.4 pg/mL and 28.9 pg/mL
IL-8 Concentration, Average [1, 5]: 38.0 pg/mL
IL-8 Concentration, replicate ([1]; 6X dilution of stock simple solution (Table 6) with P.g. LPS (1 μg/ml), listed as ZnCitrate): 38.1 pg/mL and 37.9 pg/mL
IL-8 Concentration, Average [1, 6]: 51.9 pg/mL
IL-8 Concentration, replicate ([1]; 12X dilution of stock simple solution (Table 6) with P.g. LPS (1 μg/ml), listed as ZnCitrate): 55.6 pg/mL and 48.1 pg/mL
IL-8 Concentration, Average [1, 7]: 86.6 pg/mL
IL-8 Concentration, replicate ([1]; 24X dilution of stock simple solution (Table 6) with P.g. LPS (1 μg/ml), listed as ZnCitrate): 88.5 pg/mL and 84.8 pg/mL
GM-CSF (raw data, single replicate) [3, 10]: <3.2 pg/ml (3×) and 0.633 pg/ml
IL-1β (raw data, single replicate) [3, 10]: 0.4044 pg/mL and 0.5186 pg/mL and 0.1227 pg/mL and 1.331 pg/mL
IL-6 (raw data, single replicate) [3, 10]: <3.2 pg/ml (3×) and 0.5932 pg/ml
IL-8 (average result) [3, 10]: 395.2 pg/mL
IL-8 (raw data, single replicate) [3, 10]: 364.5 pg/mL and 386.8 pg/mL and 285.4 pg/mL and 544.1 pg/mL
TNF-α (average result) [3, 10]: 3.857 pg/mL
TNFα (raw data, single replicate) [3, 10]: 3.113 pg/mL and 2.696 pg/mL and 2.325 pg/mL and 7.294 pg/mL
GM-CSF (raw data, single replicate) ([3]; 300 ppm, without LPS): <3.2 pg/mL
IL-1β (raw data, single replicate) ([3]; 300 ppm, without LPS): 0.01381 pg/mL and 0.1227 pg/mL and 0.2344 pg/mL and 0.4044 pg/mL
IL-6 (raw data, single replicate) ([3]; 300 ppm, without LPS): <3.2 pg/mL
IL-8 (average result) ([3]; 300 ppm, without LPS): 294 pg/mL
IL-8 (raw data, single replicate) ([3]; 300 ppm, without LPS): 254.6 pg/mL and 237.5 pg/mL and 296.9 pg/mL and 386.9 pg/mL
TNF-α (average result) ([3]; 300 ppm, without LPS): 1.616 pg/mL
TNFα (raw data, single replicate) ([3]; 300 ppm, without LPS): 1.244 pg/mL and 1.675 pg/mL and 1.373 pg/mL and 2.173 pg/mL
GM-CSF (raw data, single replicate) [3, 11]: <3.2 pg/mL
IL-1β (raw data, single replicate) [3, 11]: 0.6335 pg/ml and 0.1227 pg/ml (2×) and 0.2344 pg/ml
IL-6 (raw data, single replicate) [3, 11]: <3.2 pg/mL
IL-8 (average result) [3, 11]: 326.3 pg/mL
IL-8 (raw data, single replicate) [3, 11]: 447.3 pg/mL and 287.8 pg/mL and 291.5 pg/mL and 278.6 pg/mL
TNF-α (average result) [3, 11]: 1.596 pg/mL
TNFα (raw data, single replicate) [3, 11]: 2.587 pg/mL and 1.416 pg/mL and 1.266 pg/mL and 1.116 pg/mL
GM-CSF (raw data, single replicate) ([3]; 600 ppm, without LPS): 0.1483 pg/ml and 0.07253 pg/ml and <3.2 pg/ml (2×)
IL-1β (raw data, single replicate) ([3]; 600 ppm, without LPS): 0.9228 pg/mL and 0.2908 pg/mL and 0.01381 pg/mL and 0.1227 pg/mL
IL-6 (raw data, single replicate) ([3]; 600 ppm, without LPS): 0.3248 pg/ml and <3.2 pg/ml (3×)
IL-8 (average result) ([3]; 600 ppm, without LPS): 293.9 pg/mL
IL-8 (raw data, single replicate) ([3]; 600 ppm, without LPS): 434.5 pg/mL and 262.1 pg/mL and 234.6 pg/mL and 244.6 pg/mL
TNF-α (average result) ([3]; 600 ppm, without LPS): 1.172 pg/mL
TNFα (raw data, single replicate) ([3]; 600 ppm, without LPS): 2.064 pg/mL and 1.073 pg/mL and 0.6069 pg/mL and 0.9454 pg/mL
effect on LPS-induced TNFα (in words) ([3]; P. gingivalis LPS, 300 and 600 ppm, listed as Zinc citrate): more profound inhibition
effect on LPS-induced TNFα (in words) [3, 12]: significantly reduced
effect on induction of IL-8 by LPS (in words) [3, 12]: significantly reduced; also recorded: profound inhibition
